From patent US20260250318A1, “COMPOSITIONS AND METHODS FOR CROSSING THE BLOOD BRAIN BARRIER” (VOYAGER THERAPEUTICS, INC., priority 2022, published 2026)

Tested on: brains, heart, liver, muscle, and DRG of the NHPs
Experiment: Maturation of TTM-001 and TTM-002 capsids, NGS enrichment in NHP tissues
Assay type: in vivo
Excerpt: This Example describes maturation of the AAV9 capsid variants, TTM-001 (SEQ ID NO: 981 (amino acid) and 983 (DNA), comprising SEQ ID NO: 941 (encoded by SEQ ID NO: 942)) and TTM-002 (SEQ ID NO: 982 (amino acid) and 984 (DNA), comprising SEQ ID NO: […] (encoded by SEQ ID NO: 944)) in NHPs to further enhance their transduction and biodistribution in the central nervous system as well as other tissues, and evolve the AAV capsid variants to provide further cross-species compatibility. Two approaches were used to mature the TTM-001 and TTM-002 capsid sequences in order to randomize and mutate within and around the peptide insert comprised within loop IV of the capsid variant. […] In the first maturation approach, sets of three contiguous amino acids were randomized across the mutagenesis region in the TTM-001 and TTM-002 sequences, which spanned from position 450 to position 466, numbered according to SEQ ID NO: 981 and 982. In the second maturation approach, mutagenic primers were used to introduce point mutations at a low frequency, scattered across the mutagenesis region in the TTM-001 and TTM-002 sequences ranging from position 449 to position 466, numbered according to SEQ ID NO: 981 and 982. AAV capsid variants arising from each maturation approach for TTM-001 and TTM-002 were pooled together, for subsequent testing and characterization in NHPs.
The library of pooled matured AAV capsid variants generated using the first maturation approach and the second maturation approach for the TTM-001 and TTM-002 AAV capsid variants were injected into two NHPs. […] Following RNA recovery and RT-PCR amplification, a systematic NGS enrichment analysis was performed to calculate the fold enrichment ratio relative to an AAV9 control, and the peptides comprised within the variants were identified.
Following the RNA recovery and NGS analysis from the second maturation approach, approximately 680,000 capsid variants were identified. The 680,000 matured capsid variants were then filtered based on samples with a raw virus count greater than 10 and a coefficient of variance (CV) of less than 1, which was calculated for each peptide across the brain samples taken from the two NHPs. […] Using this filtering criteria, this led to approximately 64,000 matured capsid variants.

[1] = NHP DRG, NGS, relative to AAV9 control
[2] = NHP brain, NGS, relative to AAV9 control
[3] = NHP heart, NGS, relative to AAV9 control
[4] = NHP liver DNA, NGS, relative to AAV9 control
[5] = NHP liver RNA, NGS, TTM-001 and TTM-002 matured AAV capsid variants, relative to AAV9 control
[6] = NHP muscle, NGS, relative to AAV9 control

Sequence | Fold Enrichment relative to AAV9, DRG (NHP) [1] | Fold Enrichment relative to AAV9, Brain (NHP) [2] | Fold Enrichment relative to AAV9, Heart (NHP) [3] | Fold Enrichment relative to AAV9, Liver DNA (NHP) [4] | Fold Enrichment relative to AAV9, Liver RNA (NHP) [5] | Fold Enrichment relative to AAV9, Muscle (NHP) [6] | Fold Enrichment relative to AAV9, DRG (NHP) (NGS fold-enrichment, DRG, NHP, relative to AAV9) | Fold Enrichment relative to AAV9, Brain (NHP) (NGS fold-enrichment, brain, NHP, relative to AAV9) | Fold Enrichment relative to AAV9, Heart (NHP) (NGS fold-enrichment, heart, NHP, relative to AAV9) | Fold Enrichment relative to AAV9, Liver DNA (NHP) (NGS fold-enrichment, liver DNA, NHP, relative to AAV9) | Fold Enrichment relative to AAV9, Liver RNA (NHP) (NGS fold-enrichment, liver RNA, NHP, relative to AAV9) | Fold Enrichment relative to AAV9, Muscle (NHP) (NGS fold-enrichment, muscle, NHP, relative to AAV9)
KTINGSGSPHSKAQYVRT | 0.000 fold | 0.000 fold | 0.000 fold | 3.275 fold | 12.239 fold | 0.000 fold |  |  |  |  |  | 
KYSAGSGSPHSKAQNQQT (peptide inserted in AAV capsid) | 0.000 fold | 0.000 fold | 0.000 fold | 1.824 fold | 41.310 fold | 0.000 fold |  |  |  |  |  | 
KTINGSGSPHSKACRLQT | 0.000 fold | 0.000 fold | 0.000 fold | 6.537 fold | 12.297 fold | 0.000 fold |  |  |  |  |  | 
KTINGSGSPHSWAPNQQT | 0.000 fold | 0.000 fold | 0.000 fold | 1.789 fold | 47.897 fold | 0.000 fold |  |  |  |  |  | 
KTINGLDSPHRSRQNQQT | 0.000 fold | 0.000 fold | 0.000 fold | 0.321 fold | 26.403 fold | 0.000 fold |  |  |  |  |  | 
KTINGSGSPHSLCLNQQT | 0.000 fold | 0.000 fold | 0.000 fold | 1.790 fold | 17.028 fold | 0.000 fold |  |  |  |  |  | 
KTINGSGSPHCPAQNQQT | 0.000 fold | 0.000 fold | 0.000 fold | 1.409 fold | 13.359 fold | 0.000 fold |  |  |  |  |  | 
KTINGSGSPHRIKQNQQT | 0.000 fold | 0.000 fold | 0.000 fold | 3.064 fold | 21.720 fold | 0.000 fold |  |  |  |  |  | 
KYYTGSGSPHSKAQNQQT (peptide inserted in AAV capsid) | 0.000 fold | 0.000 fold | 0.000 fold | 1.199 fold | 38.777 fold | 0.000 fold |  |  |  |  |  | 
KTINGSGSPHSFFGNQQT | 0.000 fold | 0.000 fold | 0.000 fold | 6.101 fold | 38.088 fold | 0.000 fold |  |  |  |  |  | 
KTINGSGSPHSKYFMQQT | 0.000 fold | 0.000 fold | 0.000 fold | 2.993 fold | 57.350 fold | 0.000 fold |  |  |  |  |  | 
KTINGSGSPHQGCQNQQT | 0.000 fold | 0.000 fold | 0.000 fold | 1.037 fold | 17.676 fold | 0.000 fold |  |  |  |  |  | 
KTINGSGSPHSWLKNQQT | 0.000 fold | 0.000 fold | 0.000 fold | 0.603 fold | 13.995 fold | 0.000 fold |  |  |  |  |  | 
KTINGSGSPHVPWQNQQT | 0.000 fold | 0.000 fold | 0.000 fold | 3.435 fold | 25.294 fold | 0.000 fold |  |  |  |  |  | 
KTINGSGSPHCRVQNQQT | 0.000 fold | 0.000 fold | 0.000 fold | 1.203 fold | 31.043 fold | 0.000 fold |  |  |  |  |  | 
KTRRPSGSPHSKAQNQQT | 0.000 fold | 0.000 fold | 0.000 fold | 2.384 fold | 42.374 fold | 0.000 fold |  |  |  |  |  | 
KTINGSGSPHFPFQNQQT |  |  |  |  |  |  | 0.000 fold | 0.000 fold | 0.000 fold | 3.715 fold | 10.322 fold | 0.000 fold
KTINGSGSPHSKAQFILT | 0.000 fold | 0.000 fold | 0.000 fold | 4.208 fold | 16.650 fold | 0.000 fold |  |  |  |  |  | 
KTINGSGSPHSMCQNQQT | 0.000 fold | 0.000 fold | 0.000 fold | 1.348 fold | 37.209 fold | 0.000 fold |  |  |  |  |  | 
KTINGSGSPHSRFWNQQT | 0.000 fold | 0.000 fold | 0.000 fold | 6.955 fold | 51.225 fold | 0.000 fold |  |  |  |  |  | 
KTINGSGSPHSKPKRQQT | 0.000 fold | 0.000 fold | 0.000 fold | 2.832 fold | 52.881 fold | 0.000 fold |  |  |  |  |  | 
KTINGSRSPHAWAQNQQT (peptide inserted in AAV capsid) | 0.000 fold | 0.000 fold | 0.000 fold | 6.838 fold | 31.146 fold | 0.000 fold |  |  |  |  |  | 
KTINGSGSPHSKACQFQT | 0.000 fold | 0.000 fold | 0.000 fold | 8.562 fold | 17.640 fold | 9.605 fold |  |  |  |  |  | 
KTINGSGSPHSKAARRQT | 0.000 fold | 0.000 fold | 0.000 fold | 6.633 fold | 19.998 fold | 0.000 fold |  |  |  |  |  | 
